Data set [1] relates to normal human dermal fibroblasts (NHDFs). Put plainly: WST-1 cell proliferation assay. The class given is cell-based. To be noted: 48 h. The protocol: Normal human dermal fibroblasts (NHDFs) from a 37- and […] were obtained commercially from Cambrex (Walkerville, United States) and Coriell (New Jersey, United States). The NHDFs were cultured in phenol red-free Dulbecco’s modified Eagle’s medium (DMEM; Thermo Fisher Scientific, Waltham, Massachusetts, United States) supplemented with 10% (v/v) FCS, 4 mM L-glutamine and 100,000 U/L penicillin, 100 mg/L Streptomycin, 0.25 mg/L amphotericin B (PAN Biotech, Aidenbach, Germany) at 37 °C, 5% CO2. The medium was changed twice a week until the cells reached 80% confluency. The NHDFs were subcultured with an expansion ratio of 1:3 using 0.05% trypsin (PAN Biotech, Aidenbach, Germany) and used until the ninth passage.
The tetrazolium salt WST-1 (Roche, Basel, Swiss) was used for the spectrophotometric quantification of cell proliferation in response to various inhibitor concentrations. The cell proliferation assay was carried out according to the manufacturer’s instructions in a 96-well tissue culture plate with 1700 cells per cavity. Based on the inhibition studies, the cells were cultured in fully supplemented DMEM for 24 h then treated with celastrol or amphotericin B for an additional 48 h. The WST-1 reagent was added to the cell culture supernatant 4 h before the end of the treatment. The absorptions at 440 and 590 nm were measured at timepoints 0, 1, 2, 3 and 4 h after the addition of WST-1.

A further data set deals with T1, XT-I (Homo sapiens, UniProt Q86Y38).
T1 sequence (Q86Y38 260-959 limits assumed): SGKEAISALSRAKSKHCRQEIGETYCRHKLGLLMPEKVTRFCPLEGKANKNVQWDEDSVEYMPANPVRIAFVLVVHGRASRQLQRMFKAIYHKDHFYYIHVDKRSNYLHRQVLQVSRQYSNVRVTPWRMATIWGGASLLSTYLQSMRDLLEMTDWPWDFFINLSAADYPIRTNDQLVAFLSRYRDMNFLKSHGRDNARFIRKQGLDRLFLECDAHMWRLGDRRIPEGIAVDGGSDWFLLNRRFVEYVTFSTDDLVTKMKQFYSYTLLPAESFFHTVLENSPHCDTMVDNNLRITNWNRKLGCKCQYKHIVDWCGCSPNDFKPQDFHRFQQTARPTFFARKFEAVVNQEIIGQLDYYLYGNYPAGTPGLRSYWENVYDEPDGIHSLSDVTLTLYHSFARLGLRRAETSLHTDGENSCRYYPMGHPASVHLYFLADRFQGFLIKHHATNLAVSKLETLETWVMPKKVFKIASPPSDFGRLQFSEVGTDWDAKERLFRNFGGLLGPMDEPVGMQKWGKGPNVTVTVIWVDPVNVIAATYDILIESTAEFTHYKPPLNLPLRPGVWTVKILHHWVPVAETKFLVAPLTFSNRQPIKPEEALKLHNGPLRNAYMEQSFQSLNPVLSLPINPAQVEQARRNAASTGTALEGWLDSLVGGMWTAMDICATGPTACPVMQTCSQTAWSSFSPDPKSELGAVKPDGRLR
Put plainly: Cellular (extra- and intracellular) XT-I activity of NHDFs by UPLC-ESI-MS/MS XT-I assay. The class given is cell-based. To be noted: for extracellular XT-I activity relative to DMSO control / intracellular XT activity compared to DMSO control: then inhibitor-free media 48 h (96 h). An excerpt: The measurement of relative XT-I activity among different samples is based on the XT-catalyzed incorporation of xylose from UDP-D-xylose on a modified bikunin-derived peptide after a fixed reaction time. The assay was originally developed for the determination of XT activity in human- or cell-culture-derived samples [13] by ultra-performance liquid chromatography/electrospray ionization tandem mass spectrometry (UPLC/ESI-MS/MS). The UPLC/ESI-MS/MS XT assay was recently modified toward a XT-I selective activity determination in human serum and cell culture samples (unpublished data). The relative intensities of the xylosylated peptide species abundance obtained with the respective m/z ratio were directly proportional to the relative XT-I activity of the sample. The XT-I activity determined is expressed in arbitrary units and normalized to the total protein content per 1 mL sample volume in cell culture approaches. A calibrator probe with a fixed amount of recombinant XT-I enzyme was included in every UPLC-MS/MS XT-I assay for assay comparability across multiple runs. The assay reaction mixture (50 μL) contained 50% (v/v) of the respective XT-I enzyme solution and 50% (v/v) reaction buffer. The final XT-I assay contained 25 mM MES buffer (pH 6.5), 25 mM KF buffer, 5 mM MnCl2, 5 mM MgCl2, 7.0 μM modified acceptor peptide and 30 μM UDP-D-xylose. The sample preparation for UPLC/ESI-MS/MS was performed according to [13]. In brief, after sample incubation at 37 °C for 24 h, the reaction was stopped by heating at 99 °C for 10 min. After centrifugation (10,000× g, 10 min) the supernatant was diluted fivefold with UPLC water for analysis. All cell-based XT-I assays were carried out in three biological and three technical replicates per donor-derived primary cell culture, while the XT-I activity determination for screening or kinetic purposes was carried out at least in technical duplicates.
A former established cell culture model was utilized to investigate the effect of putative XT-I inhibitors on NHDFs. The inhibition studies were carried out with final inhibitor concentrations of 0.5, 1.0, 2.0 or 4.0 μM diluted in fully supplemented DMEM. In brief, unless otherwise stated, NHDFs were cultivated with a low density of 50 cells per mm^2 on a hard tissue culture substrate (100 × 20 mm dish) in fully supplemented DMEM with or without additional TGF-β1 (5 μg/L) for 24 h, promoting their transdifferentiation into proto-myofibroblasts. Thereafter, cells were treated with celastrol or amphotericin B in the presence or absence of TGF-β1 (5 μg/L) for an additional 48 h. Negative controls treated with solvent only were included for every sampling time. The final DMSO content of 0.04% (v/v) was kept constant in all inhibition experiments.
The cell culture supernatant was collected to analyze the extracellular XT-I activity, whereas the same cell culture monolayer was lysed using a fixed amount of 0.75 mL Nonidet P-40 (NP-40)-buffer (50 mM TRIS, 150 mM NaCl, 1% NP-40, pH 7.8) for the analysis of intracellular XT-I activities. After sample centrifugation (10,000× g, 10 min, 4 °C), the supernatant contained the intracellular XT-I protein. The lysates were also used for the BCA assay. The cellular XT-I activities were measured 48 h after inhibitor treatment (48 h) or an additional 48 h after inhibitor removal (96 h).

[2] abbreviates: 2.0 μM with TGF-β1 (5 μg/L) 48 h.
[3] abbreviates: 1.0 μM with TGF-β1 (5 μg/L) 48 h.

This note sets out measurements from PMC7589200, “Identification of Putative Non-Substrate-Based XT-I Inhibitors by Natural Product Library Screening” (Biomolecules, 2020).

On to `C[C@@H]1[C@H](O)[C@@H](C)/C=C/C=C/C=C/C=C/C=C/C=C/C=C/[C@H](O[C@@H]2O[C@H](C)[C@@H](O)[C@H](N)[C@@H]2O)C[C@@H]2O[C@](O)(C[C@@H](O)C[C@@H](O)[C@H](O)CC[C@@H](O)C[C@@H](O)CC(=O)O[C@H]1C)C[C@H](O)[C@H]2C(=O)O` [Compound 17, Amphotericin B], for which, in data set [1] (4.0 μM), the “cell proliferation (WST-1) compared to control” value is “reduced the proliferation of NHDFs significantly”. Moreover, in data set [1] (0.5 to 2.0 μM), the “cell proliferation (WST-1) compared to control” value was “did not influence cellular proliferation”. For the same compound, at XT-I (setting [2]), the “extracellular XT-I activity relative to DMSO control” value came to 0.6 ± 0.03 fold and the “intracellular XT activity compared to DMSO control” value was “did not result in any detectable changes”.

On to `CC1=C(O)C(=O)C=C2C1=CC=C1[C@@]2(C)CC[C@@]2(C)[C@@H]3C[C@](C)(C(=O)O)CC[C@]3(C)CC[C@]12C` [Compound 68, Celastrol], for which the “cell proliferation (WST-1) compared to control” value in data set [1] (2.0 μM) is on record as “significantly decreased cell proliferation”; in data set [1] (4.0 μM) it was “significantly decreased cell proliferation”; in data set [1] (0.5 and 1.0 μM), “did not influence cellular proliferation”. The “extracellular XT-I activity relative to untreated cells” value at XT-I (0.5 μM, 48 h, inhibitor still present in supernatant (Figure S3)) was 0.8 ± 0.07 fold. Besides, the “extracellular XT-I activity relative to DMSO control” value at XT-I (setting [3]) stood at 0.9 ± 0.06 fold. Moreover, the “intracellular XT activity compared to DMSO control” value at XT-I (setting [3]) is “did not result in any detectable changes”. For the same compound, at XT-I (inhibitor present 48 h (Figure S3 setup, 0.5 μM)), the “intracellular XT activity” value is on record as “No intracellular XT activity changes were observed”.
